# Reference: patent publication US20260258057A1, “CRYSTAL OF BORATE DERIVATIVE, METHOD FOR PREPARING SAME, AND USE THEREOF” (Reistone Biopharma Company Limited, priority 2022, published 2026)
# Key:
# [1] = tested on: IL-23 secretion in DC cells; test: Inhibition of Zymosan-stimulated IL-23 secretion in DC cells differentiated from human mononuclear cells; type: cell-based; conditions: Zymosan 200 μg/ml, 24 hours, ELISA
# Method: Day 0: Mononuclear cells were isolated from fresh human peripheral blood and purified, and then resuspended in RPMI-1640 complete medium. When differentiation into DC cells took place, IL-4 at a concentration of 50 ng/ml and GM-CSF at 100 ng/ml were added to the medium, and the cells were cultured at a density of 1×10^6 cells/mL in a culture dish with a diameter of 100 mm for differentiation in an incubator at 37° C. with a carbon dioxide concentration of 5%. Day 3: Half the volume of RPMI complete medium was replaced with fresh RPMI complete medium, and the concentrations of IL-4 and GM-CSF were maintained at 50 ng/ml and 100 ng/ml respectively. Day 6: Non-adherent cells (DC cells) in the culture dish were collected and washed with PBS. The washed DC cells were resuspended with RPMI complete medium at a density of 1×10^6 cells/mL. Then, 1×10^5 DC cells were added to each well of the 96-well cell culture plate and pre-incubated for 1 hour with different dilutions of the compounds to be tested (or DMSO blank negative control at an equivalent concentration), followed by addition of 200 μg/ml of TLR2 agonist Zymosan to stimulate the DC cells for 24 hours. Day 7: After the DC cells were stimulated by Zymosan for 24 hours, the supernatant in each well of the 96-well plate was collected and detected by ELISA for the concentration of IL-23.
# [2] = tested on: imiquimod-induced mouse model of psoriasis; test: Imiquimod-induced psoriasis suppression assay; type: in vivo, Balb/c female mice; design: key to Erythema score, Mean / Psoriasis score, Mean / Thickness score, Mean: 0-5 scale, higher = more severe; key to Total clinical score, Mean: sum of 0-5 component scores; higher = more serious disease; conditions: for Ratio of spleen to body weight, Mean: Day 7, percentage of spleen to body weight; for Erythema score, Mean / Psoriasis score, Mean / Thickness score, Mean: Days 1-7; for Total clinical score, Mean: Days 1-7, endpoint of the experiment; for Effect on clinical score at the endpoint of the experiment / Effect on the ratio of spleen to body weight / Effect on the increase in skin thickness: Compound A 0.03%, versus model group; for Effect on clinical score at the endpoint of the experiment: each dose of Compound I (0.01%, 0.03%, 0.1%); for Effect on the ratio of spleen to body weight: three dose groups of Compound I; for Effect on the increase in skin thickness: Compound I low and high dose groups
# Description: An appropriate amount of Compound I was formulated into an ointment with the following components: 0.1% of Compound I, 9% of hexanediol, 78.8% of white petrolatum, 5% of paraffin, 7% of glyceryl mono- and di-stearate, and 0.1% of dihydroxybutyl toluene, which were mechanically stirred until an ointment was formed.
# 7-Week-old Balb/c female mice were used and the hair on their back in an area of 2 cm×3 cm was shaved the day before the experiment. On Days 1-7 of the experiment, the test compounds were applied on the skin, and after 6 hours, imiquimod (IMQ) ointment (Aldara (5%)) was continuously applied to the back skin of mice for 7 days, so as to establish a mouse model of psoriasis, while the control group was given the same dose of petrolatum ointment. On Days 3, 5 and 7, the severity of skin inflammation was assessed, including measurement of skin thickness, crusting and erythema, scored on a 5-point scale (0-5) respectively. The total score was used to assess the severity of skin inflammation. On Day 7 of the experiment, the spleen was collected and weighed, and the percentage of spleen to body weight was calculated to assess the immunosuppressive effect of the drug.
# Normal control group, model control group, low, medium and high dose groups of Compound I (0.01%, 0.03% and 0.1%), and 0.03% reference Compound A group were set up in this experiment.
# The total score of the degree of skin inflammation are the clinical score, the indicators of which are relatively subjective, and higher score indicated more serious disease. The degree of increase in skin thickness was an objective assessment indicator, and more increase in thickness indicated more serious disease. The ratio of spleen to body weight was an objective assessment indicator, and smaller ratio of spleen to body weight indicated stronger immunosuppressive effect of the drug.
# PDE4B1 enzyme = biological target: T1, PDE4B1 enzyme (Homo sapiens, UniProt Q07343); test: In vitro PDE4B enzyme activity detection assay (IMAP FP, FAM-cAMP substrate); type: biochemical; conditions: PDE4B1 0.04 nM, FAM-cAMP 0.1 μM, 25° C. 30 min
# T1 construct: purchased BPS 60041
# Method: A stock solution of the compound at a concentration of 10 mM was prepared in a test tube with 90% DMSO (10% water), and it was used to prepare a series of dilutions with a dilution factor of 1:5 and final concentrations starting from 100 μM and lowering to 0.05 nM.
# 0.2 μl of the solution of the compound was transferred into a 384-well reaction plate, and 0.2 μl of 100% DMSO was transferred into both the negative and positive controls. Then, 10 μl of 2×PDE4B1 enzyme solution (a final concentration of 0.04 nM) was added to the wells, and 10 μl of 1× reaction buffer (50 mM HEPES, pH 7.5, 0.0015% Brij-35) instead of the enzyme solution was added to the wells of the control without enzyme activity. The plate was centrifuged at 1,000 rpm for 1 min and incubated at room temperature for 15 min. Next, 10 μl of 2×FAM-CAMP substrate solution (a substrate final concentration of 0.1 μM) was added to each well of the 384-well reaction plate. The plate was centrifuged at 1,000 rpm for 1 min, and the reaction was carried out at 25° C. for 30 min. […]
# After completion of the incubation, the RLU data were read and the inhibition rate was calculated. The IC50 value was calculated from the concentration-inhibition fitted curve, wherein the maximum value refers to the reading of the DMSO control and the minimum value refers to the reading of the control without enzyme activity.
# TNF-α release in PBMCs = test: Inhibition of LPS-induced TNF-α release in peripheral blood mononuclear cells; type: cell-based; conditions: PBMC; LPS 0.1 ng/ml, 24 hours, ELISA
# Method: Frozen PBMCs were thawed and detected by Trypan blue staining for cell viability and number. The thawed PBMCs were washed with RPMI1640 complete medium (RPMI1640+10% FBS+1% PS) and centrifuged, and the supernatant was discarded. The PBMCs were resuspended with RPMI1640 complete medium and the cell density was adjusted to 2×10^6 cells/mL. 2×10^5 PBMC cells were plated in a 96-well cell culture plate, and the compounds to be tested were added at different concentrations, in a 1:5 serial dilution of 9 concentrations starting from a maximum compound concentration of 100 μM, each in duplicate wells. LPS was added at a final concentration of 0.1 ng/ml, making a total volume of 200 μL. For the negative and positive controls, only LPS and DMSO were added to the negative control wells, while 1 μg/mL of dexamethasone as a positive control was added to the positive control wells in addition to cells and LPS. The cells were incubated for 24 hours in an incubator at 37° C. After completion of the incubation, 100 μL of cell culture supernatant was collected and detected by ELISA for the TNF-α level. 100 μL of CellTiter-Glo was added to the remaining cells in each well to detect the level of cell viability. The IC50 values of inhibition on TNF-α release by the compounds were calculated.
# [3] = Stability test II of crystal form A (light; HPLC and XRPD); type: physicochemical
# Method: (§1) 5. High performance liquid chromatography (HPLC) described in the stability test of the crystal form A of the present disclosure is determined on Agilent 1260 Infinity II under the following HPLC conditions: chromatographic column of Agilen XDB C18 5 μm 4.6×250 mm; mobile phase of A—0.05% TFA (in water), and B—ACN; flow rate of 1.0 ml/min; wavelength of 220 nm.
# It is determined whether light has an influence on the stability of crystal form A of the compound of formula I.
# The crystal form A was placed in a light stabilizing chamber, and taken out after reaching ICH strength. The resulting solid was compared with the initial crystal form A. The content of the compound of formula I was determined by high performance liquid chromatography, and XRPD detection was performed.
# [4] = Stability test I of crystal form A (temperature and humidity; HPLC and XRPD); type: physicochemical
# Method: as §1
# It is determined whether temperature and humidity have an influence on the stability of crystal form A of the compound of formula I.
# The crystal form A was placed in a stabilizing chamber for accelerated stability tests under a series of temperature and humidity combinations. After being placed for different days under various temperature and humidity conditions, the samples were taken out and compared with the initial crystal form A. The content of the compound of formula I was determined by high performance liquid chromatography, and XRPD detection was performed.
# [5] = Dynamic vapor sorption (DVS) hygroscopicity; type: physicochemical
# Description: The ‘9103 Guidelines for Hygroscopicity of Drugs’ in Volume IV of the 2015 edition of Chinese Pharmacopoeia describes the characteristics of hygroscopicity and defines the weight gain by hygroscopicity as follows, • deliquescent: absorbing sufficient moisture to form a liquid; • extremely hygroscopic: the weight gain by hygroscopicity being no less than 15%; • hygroscopic: the weight gain by hygroscopicity being less than 15% but not less than 2%; • slightly hygroscopic: the weight gain by hygroscopicity being less than 2% but not less than 0.2%; • no or almost no hygroscopic: the weight gain by hygroscopicity being less than 0.2%.
# The detection is performed using SMS Intrinsic PLUS at 25° C., with humidity change of 50%-0%-90% with a step size of 10%, in which the criteria for judging is that the mass change dM/dT for each gradient is less than 0.0002%, TMAX is 360 min, and two cycles are performed.
# T1 sequence (Q07343 whole entry): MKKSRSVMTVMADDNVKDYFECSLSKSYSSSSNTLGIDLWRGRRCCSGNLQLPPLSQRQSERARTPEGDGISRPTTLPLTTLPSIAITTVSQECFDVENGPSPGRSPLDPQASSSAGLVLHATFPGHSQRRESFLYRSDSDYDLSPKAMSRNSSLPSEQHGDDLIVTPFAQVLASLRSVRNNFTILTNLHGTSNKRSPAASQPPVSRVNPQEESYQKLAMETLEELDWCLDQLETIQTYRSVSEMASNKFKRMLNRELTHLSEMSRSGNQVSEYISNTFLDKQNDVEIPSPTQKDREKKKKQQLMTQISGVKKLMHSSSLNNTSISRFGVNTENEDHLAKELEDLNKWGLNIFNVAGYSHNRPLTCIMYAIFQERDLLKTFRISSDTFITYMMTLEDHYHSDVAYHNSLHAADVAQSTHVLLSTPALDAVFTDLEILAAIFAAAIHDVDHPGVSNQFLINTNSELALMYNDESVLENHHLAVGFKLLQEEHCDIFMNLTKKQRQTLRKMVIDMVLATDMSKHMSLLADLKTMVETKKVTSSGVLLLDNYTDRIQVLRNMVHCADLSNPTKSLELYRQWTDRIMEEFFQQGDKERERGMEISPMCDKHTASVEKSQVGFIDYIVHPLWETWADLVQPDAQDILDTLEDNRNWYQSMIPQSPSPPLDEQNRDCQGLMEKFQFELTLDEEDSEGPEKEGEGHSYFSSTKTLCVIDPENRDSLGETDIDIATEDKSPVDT
structure (smiles),measurement,setting,value
"CCCOc1cc(-c2cncc([C@@H]3COB(O)C3)c2)ccc1OC [Compound A, reference compound]",IC50,[1],610 pM
same,"Ratio of spleen to body weight, Mean",[2]; 0.03% applied on skin,0.96
same,"Erythema score, Mean",[2]; 0.03% applied on skin,3.33
same,"Psoriasis score, Mean",[2]; 0.03% applied on skin,2.5
same,"Thickness score, Mean",[2]; 0.03% applied on skin,2.5
same,"Total clinical score, Mean",[2]; 0.03% applied on skin,8.33
same,Effect on clinical score at the endpoint of the experiment,[2],significantly reduce
same,Effect on the ratio of spleen to body weight,[2],no significant effect
same,Effect on the increase in skin thickness,[2],no significant effect
"COc1ccc(-c2cncc([C@@H]3COB(O)C3)n2)c2c1OC(C)(C)CC2 [Compound I, (R)-4-(6-(8-methoxy-2,2-dimethylbenzodihydropyran-5-yl)pyrazin-2-yl)-1,2-oxaborocyclopentan-2-ol]",IC50,PDE4B1 enzyme,170 pM
same,IC50,[1],18 pM
same,IC50,TNF-α release in PBMCs,55 pM
same,"Ratio of spleen to body weight, Mean",[2]; 0.01% applied on skin,0.64
same,"Erythema score, Mean",[2]; 0.01% applied on skin,4
same,"Psoriasis score, Mean",[2]; 0.01% applied on skin,3.13
same,"Thickness score, Mean",[2]; 0.01% applied on skin,2.38
same,"Total clinical score, Mean",[2]; 0.01% applied on skin,9.5
same,Inhibitory effect on the increase in skin thickness compared with Compound A at the same dose,[2]; 0.03%,significantly higher
same,"Ratio of spleen to body weight, Mean",[2]; 0.03% applied on skin,0.43
same,"Erythema score, Mean",[2]; 0.03% applied on skin,3.86
same,"Psoriasis score, Mean",[2]; 0.03% applied on skin,2.14
same,"Thickness score, Mean",[2]; 0.03% applied on skin,1.57
same,"Total clinical score, Mean",[2]; 0.03% applied on skin,7.57
same,"Ratio of spleen to body weight, Mean",[2]; 0.1% applied on skin,0.31
same,"Erythema score, Mean",[2]; 0.1% applied on skin,3.63
same,"Psoriasis score, Mean",[2]; 0.1% applied on skin,1.38
same,"Thickness score, Mean",[2]; 0.1% applied on skin,1.75
same,"Total clinical score, Mean",[2]; 0.1% applied on skin,6.75
same,Effect on clinical score at the endpoint of the experiment,[2],significantly reduce
same,Effect on the ratio of spleen to body weight,[2],significantly reduce
same,Effect on the increase in skin thickness,[2],significantly inhibit
O=C(Nc1c(Cl)cncc1Cl)c1ccc(OC(F)F)c(OCC2CC2)c1 [Roflumilast],IC50,[1],12900 pM
"COc1ccc(-c2cncc([C@@H]3COB(O)C3)n2)c2c1OC(C)(C)CC2 [crystal form A, (R)-4-(6-(8-methoxy-2,2-dimethylbenzodihydropyran-5-yl)pyrazin-2-yl)-1,2-oxaborocyclopentan-2-ol]",Purity,[3]; At 0,97.99%
same,Purity,[3]; Light-0.5 ICH,97.76%
same,Purity,[3]; Light-1.0 ICH,97.15%
same,Purity,"[4]; 55 °C, 30% humidity, 18 days",98.01%
same,Purity,"[4]; 55 °C, 79% humidity, 20 days",97.40%
same,Purity,"[4]; 65 °C, 11% humidity, 20 days",97.74%
same,Purity,"[4]; 65 °C, 50% humidity, 20 days",96.16%
same,Purity,"[4]; 65 °C, 75% humidity, 20 days",95.86%
same,Purity,"[4]; 70 °C, 11% humidity, 20 days",97.33%
same,Purity,"[4]; 75 °C, 0% humidity, 20 days",97.41%
same,Purity,"[4]; 75 °C, 50% humidity, 7 days",96.57%
same,Overall stability under temperature and humidity combinations,"[4]; accelerated stability tests, Table 4 conditions",remains unchanged and exhibits good stability
same,Purity,"[4]; initial, 0 days",97.99%
same,Weight gain by hygroscopicity,"[5]; accelerated experimental conditions, 70% RH",approximately 0.15%
same,Crystal form before and after DVS detection (XRPD),"[5]; after DVS, humidity 0% to 90% RH",does not change
same,Weight gain by hygroscopicity,"[5]; extreme conditions, 90% RH",approximately 0.70%
same,Weight gain by hygroscopicity,"[5]; normal storage conditions, 25° C., 60% RH",approximately 0.08%
